# From patent US11491105B2, “Methods of treating microbial infections, including mastitis” (priority 2013, dated 2022)
# Legend:
# [1] = test system: ATCC 49775 reference strain; assay: Microdilution time-kill assay; assay type: cell-based, Staphylococcus; settings: for growth (optical density) compared to growth control: over a 48 hour period
# Protocol: Following assessment of MIC and MBC results, two compounds were chosen for analysis using microdilution time-kill assays, LP 1369 and LP 6315 and these were compared to ampicillin. Time-kill assays were performed according to the M26-A guidelines of the CLSI, with modifications. The test compounds and ampicillin were serial diluted in CAMHB across the rows of a 96 well plate and a bacterial suspension was prepared and added in the same manner as the MIC testing. […] The time points assessed were 0, 1, 2, 4, 8, 12, 24 and 48 hours after the addition of the bacterial suspension to the wells. Each test compound was tested in triplicate while ampicillin was tested in duplicate and this test was independently repeated. The bacterial strains used for the microdilution assays were chosen based on bactericidal activity evident during MBC testing. One strain from each of the categories of Staphylococcus in the isolate collection (methicillin-sensitive, methicillin resistant and coagulase negative) were selected as well as the ATCC reference strain for comparison. These strains were strains MSS 1, MSS 11, MRSA 9 and the ATCC 49775 reference strain.
# [2] = test system: ATCC 49775 reference strain; assay: Macrodilution time-kill assay; assay type: cell-based, Staphylococcus; settings: 24 hours
# Protocol: Due to the detection limit of the OD measurements, the time-kill assays were also performed in macrodilution. In 15 mL tubes, 9 mL volumes of the test compounds in CAMHB were prepared at one, four and eight times the MIC concentration and 9 mL volumes of ampicillin were prepared in CAMHB at one and four times the MIC. 1 mL of a 4 to 5×10^6 bacterial suspension (as prepared for MIC testing) was added to each of the tubes as well as a growth control tube containing only 9 mL of CAMHB. These tubes were incubated at 37° C. in an orbital shaker rotating at 100 rpm for 24 hours. At 0, 1, 4, 8, 12 and 24 hours after addition of the bacteria, 100 μL samples were removed from each tube and serial diluted in 9.1 g/L saline solution. The dilutions were then plated in duplicate onto plate count agar and incubated for 24 hours at 37° C. After incubation, viable counts were obtained from the number of colonies visible on the agar and these were used to calculate the number of CFU/mL at each time point. For the macrodilution time-kill analysis, only the ATCC 49775 reference strain and MRSA 9 were assessed in order to further investigate the antibacterial activity against methicillin-resistant strains. These macrodilution time-kill assays were independently repeated and bactericidal activity was defined as a ≥3 log decrease in the number of CFU/mL.
# bovine mastitis isolates = assay: Minimum inhibitory concentration assay (Example 3); assay type: cell-based; settings: for MIC90: 51 Australian bovine mastitis isolates
# From the text: Fifty-one dairy bovine mastitis isolates, encompassing a variety of bacterial species, were isolated from milk samples collected from dairy farms in rural South Australia by the University of Adelaide Ambulatory Clinic. Cellular morphology observed from Gram stains and catalase testing was used to differentiate Staphylococcus, Streptococcus and Corynebacterium species from Gram-negative species. Further biochemical testing including coagulase, Lancefield grouping, esculin hydrolysis and CAMP tests were used to identify the isolates to species level. Where biochemical test results were not definitive in identifying species, amplification and sequencing of the 16S ribosomal RNA gene was used to confirm the identity of the isolates.
# Minimum inhibitory concentration tests were performed in the manner outlined by the CLSI (CLSI 2012). Test compounds were dispensed into a 96-well microtitre tray containing 90 μl of CAMHB in 90 μl volumes and serial diluted to obtain a concentration gradient ranging from 128 μg/ml to 0.25 μg/ml (see FIG. 24). For Streptococcus species, CAMHB was replaced with a CAMHB supplement with 4% lysed-sheep blood (4% LSB:CAMHB). 4% LSB:CAMHB was prepared by mixing 5 ml sheep blood to 5 ml milliQ water, and repeated freezing at −20° C. and thawing, followed by centrifuged for 20 min at 7000 rpm. 7 ml of the supernatant was removed and added to 93 mL of CAMB.
# Bacterial suspensions were prepared by emulsifying fresh colonies obtained from an overnight culture on Sheep Blood Agar (SBA) in 4 mls of 9.1 g/l physiological saline to an optical density read at 600 nm (OD600nm) between 1.00 and 1.20. Standardised bacterial suspensions were diluted 1:10 in physiological saline and dispensed into all wells, excluding the negative control wells, in 10 μL volumes giving a final concentration of between 4×10^5 and 5×10^5 CFU/mL in each well. 96-well microtitre trays were incubated for 24 hours at 37° C. in 5% CO2 and then assessed both visually and using OD readings from a microplate reader at a wavelength of 600 nm. These tests were performed in duplicate and repeated if discrepancies in MIC values were observed between replicates.
# The minimum inhibitory concentration (MIC) was determined to be the lowest concentration of antibiotic that prevented growth of bacteria both visually and using OD readings. MIC values were collated and used to determine the lowest concentration of each compound effective against 50% and 90% of isolates, known as the MIC50 and MIC90 respectively. These values as well as the range of MIC values were then used for direct comparisons between test compounds and for general comparisons with ampicillin.
SMILES,"growth at the MIC ([1]; at the MIC, 48 hours)",growth (optical density) compared to growth control [1],bactericidal or bacteriostatic (>=3 log decrease in CFU/mL = bactericidal) ([2]; LP 6315: most concentrations),MIC values (in words) (bovine mastitis isolates),antibacterial activity against the bovine mastitis isolates (bovine mastitis isolates),MIC90 (bovine mastitis isolates),decrease in the number of viable bacteria ([2]; all concentrations tested)
"CO[C@@H]1[C@@H](OC)[C@H](C)[C@@](O)(CC(=O)O)O[C@H]1[C@H](C)[C@H]1O[C@@]2(CC[C@@](C)([C@H]3CC[C@@](C)([C@@H]4O[C@@H]([C@H]5O[C@](C)(O)[C@H](C)C[C@@H]5C)C[C@@H]4O[C@@H]4C[C@H](OC)[C@@H](OC)[C@H](C)O4)O3)O2)C[C@H](O)[C@H]1C.N [LP 6315, Maduramicin]",Some growth was observed after 48 hours,prevented the growth,bacteriostatic,low MIC values,observed,4 µg/mL,–
"CC[C@@H](C(=O)[C@@H](C)[C@@H](O)[C@H](C)CCc1ccc(C)c(O)c1C(=O)O)[C@H]1O[C@](CC)([C@H]2CC[C@](O)(CC)[C@H](C)O2)C[C@@H]1C [LP 1369, Lasalocid]",–,prevented the growth,–,low MIC values,observed,4 µg/mL,< 3 log10
